Experimental findings from patent US4724238A, “Method of treating inflammatory diseases with labdan derivatives” (Hoechst Aktiengesellschaft, priority 1985, dated 1988) are described below.

One assay relates to rat ear inflammation. Nature of the assay: Croton oil-induced local inflammation test in rats (topical). The format is in vivo, rat (Charles Foster's strain). The settings on record: applied with the irritant, 4 hours. How it is done:
(b) Croton oil-induced local inflammation test in rats A volume of 0.05 ml of croton oil irritant (2.0 ml pyridine, 0.5 ml distilled water+7.4 ml diethyl ether+0.1 ml croton oil) is applied under ether anaesthesia to the anterior and posterior sides of the ear of rats weighing 45 to 60 g (Charles Foster's strain) with the help of a micro glass syringe and a blunt 20 gauge needle/Tonelli G., Thibault L. and Ringer I, Endocrinology 77, 625-634 (1965)/. The right untreated ear serves as control. The drug treated group receives different concentrations of compounds along with the irritant. Four hours later the animals are sacrificed. The ears are removed and punched with an 8 mm diameter cork borer. The punched portions are immediately weighed. The increase in the weight of ear is determined by the difference in the weight between the left and right ear. The topical anti-inflammatory activity of the test compound is expressed as the percent inhibition of the increase in ear weight of the irritant treated ear according to the following formula [formula] The ED50 value is calculated from the dose response curve. Six animals are used per group.

Another assay has as its system rat paw oedema. In words: Acute carrageenin-induced rat paw oedema test (systemic). The settings on record: ip, paw volume at 3 and 6 hours after carrageenin. The class given is in vivo, rat (Charles Foster, male). As for the experimental part: (a) Acute carrageenin-induced rat paw oedema test Charles Foster male rats (120-150 g) are fasted for 18 hrs. with water ad libitum. The test compound suspended in 0.5% carboxymethyl cellulose (CMC) is given intraperitoneally. The control group receives 0.5% CMC suspension. 0.05 ml of the 0.5% carrageenin suspension is injected subcutaneously into the planter region of the left hind paw. The paw volume is determined before carrageenin injection and at 3 hours and 6 hours after injection using a Maclab volume differential meter. The percentage decrease in paw volume is calculated with the following formula: [formula] The ED50 value is calculated from the dose-response curve. Six animals are used per group.

For assay [1], the system named is Adjuvant-induced arthritis in rats. Nature of the assay: Adjuvant-induced arthritis test in rats, developing arthritis. The settings on record: i.p., once daily for 21 days. The format is in vivo, rat (Charles Foster, female).
For assay [2] the test system is unchanged. In words: Adjuvant-induced arthritis test in rats, established arthritis. The format is in vivo, rat (Charles Foster, female). The settings on record: i.p., once daily from day 15 to day 21.
Assay [3] concerns Acetic acid induced writhing in mice. In words: Analgesic activity, acetic acid writhing test. The class given is in vivo, mouse (male). The settings on record: Mus musculus, sc, 30 minutes before 0.2 ml of 3% acetic acid i.p.; observed 15 minutes. How it is done:
Analgesic activity--Acetic acid writhing test
A test compound suspended in 0.5% carboxy methyl cellulose is given subcutaneously to the male mice (20-25 g). The control group received only the 0.5% CMC. After 30 minutes, 0.2 ml of 3% acetic acid is administered intraperitoneally. The animals are observed for 15 minutes for a characteristic stretching or writhing syndrome which is indicative of pain induced by acetic acid. Six animals are used per group.
In the test group, mice which show less than or equal to 50 percent of the mean control writhing value are considered to be protected. (Blumberg et al. Proc. Soc. Exp. Biol. Med., 118, 763-766, 1965). The percent analgesic activity is calculated as follows: [formula] The ED50 value is calculated from the dose response curve.

Take `C=C[C@@]1(C)CC(=O)[C@@H]2[C@@]3(C)CCCC(C)(C)[C@@H]3[C@H](O)[C@H](OC(C)=O)[C@@]2(C)O1` [1,9-Dideoxyforskolin, 7β-acetoxy-1,9-dideoxy-8,13-epoxy-6β-hydroxy-labd-14-en-11-one]: the “ED50, croton oil induced rat ear inflammation” value in the assay on rat ear inflammation came out at 1.6 mg/ear. Moreover, the ED50 is 2.2 mg/kg in the assay with rat paw oedema and 9 mg/kg in assay [3]. In addition, the “% inhibition of paw volume, developing arthritis” value in assay [1] (3.0 mg/kg) was 62%. Besides, in assay [2] (3.0 mg/kg), the “% inhibition of paw volume, established arthritis” value is given as 30%.

As to `C=C[C@@]1(C)CC(=O)[C@]2(O)[C@@]3(C)[C@@H](O)CCC(C)(C)[C@@H]3[C@H](O)[C@H](OC(C)=O)[C@@]2(C)O1` [Forskolin, 7β-acetoxy-8,13-epoxy-1α,6β,9α-trihydroxy-labd-14-en-11one], the “ED50, croton oil induced rat ear inflammation” value in the assay with rat ear inflammation was determined as 1.15 mg/ear. The ED50 in the assay on rat paw oedema worked out at 4.8 mg/kg. In addition, the “% inhibition of paw volume, developing arthritis” value in assay [1] (2.5 mg/kg) was 23%. The “% inhibition of paw volume, established arthritis” value in assay [2] (2.4 mg/kg) was determined as 27%.

A word on the ED50: it is the dose that gives a 50% effect, or the effect in half of the subjects. The low end stands for greater potency, the high end for weaker potency.
